Test results published in ChEMBL document CHEMBL1201862, “PubChem BioAssay data set” (2004).
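How tested: cells in 96-well plates exposed to compound for 48 hours at five concentrations. GI50 marks 50% less growth.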 The source made the active and inactive calls. No stated cut-off is given here; in the data, active = GI50 up to about 1.1 µM and inactive = higher.

Experiments:
Experiment in all cases: DTP human tumour cell line panel, 48 h
[1] = system: SNB-75
[2] = system: HOP-62
[3] = system: A498
[4] = system: XF498
[5] = system: KM-20L2
[6] = system: HOP-92
[7] = system: SF-295
[8] = system: SK-OV-3
[9] = system: SR
[10] = system: DLD-1
[11] = system: OVCAR-8
[12] = system: SW-620
[13] = system: DMS-114
[14] = system: SK-MEL-2
[15] = system: DMS-273
[16] = system: UO-31
[17] = system: HCT-116
[18] = system: HOP-18
[19] = system: SF-539
[20] = system: HCT-15
[21] = system: EKVX
[22] = system: IGROV-1
[23] = system: M14
[24] = system: SNB-78
[25] = system: SK-MEL-5
[26] = system: UACC-257
[27] = system: HCC 2998
[28] = system: A549
[29] = system: 786-0
[30] = system: SK-MEL-28
[31] = system: HL-60
[32] = system: KM12
[33] = system: HT-29
[34] = system: Malme-3M
[35] = system: CAKI-1
[36] = system: UACC-62
[37] = system: LOX IMVI
[38] = system: TK-10
[39] = system: ACHN
[40] = system: K562
[41] = system: NCI-H522
[42] = system: OVCAR-4
[43] = system: CCRF-CEM
[44] = system: M19-MEL
[45] = system: NCI-H460
[46] = system: U-251
[47] = system: SF-268
[48] = system: RXF 393
[49] = system: NCI-H23
[50] = system: MOLT-4
[51] = system: OVCAR-3
[52] = system: SN12C
[53] = system: SNB-19
[54] = system: COLO 205
[55] = system: OVCAR-5
[56] = system: NCI-H226
[57] = system: RPMI-8226
[58] = system: LXFL 529

Structure (SMILES): Cc1c2ccccc2c(=O)n2c(-c3ccccn3)cccc12
- GI50 [1]: > 100 µM (inactive)
- GI50 [2]: > 100 µM (inactive)
- GI50 [3]: 29.8 µM (inactive)
- GI50 [4]: > 100 µM (inactive)
- GI50 [5]: > 100 µM (inactive)
- GI50 [6]: > 100 µM (inactive)
- GI50 [7]: > 100 µM (inactive)
- GI50 [8]: > 100 µM (inactive)
- GI50 [9]: 54 µM (inactive)
- GI50 [10]: > 100 µM (inactive)
- GI50 [11]: > 100 µM (inactive)
- GI50 [12]: > 100 µM (inactive)
- GI50 [13]: > 100 µM (inactive)
- GI50 [14]: > 100 µM (inactive)
- GI50 [15]: > 100 µM (inactive)
- GI50 [16]: > 100 µM (inactive)
- GI50 [17]: > 100 µM (inactive)
- GI50 [18]: > 100 µM (inactive)
- GI50 [19]: > 100 µM (inactive)
- GI50 [20]: > 100 µM
- GI50 [21]: > 100 µM (inactive)
- GI50 [22]: > 100 µM (inactive)
- GI50 [23]: 78.7 µM (inactive)
- GI50 [24]: > 100 µM (inactive)
- GI50 [25]: > 100 µM (inactive)
- GI50 [26]: 94.8 µM (inactive)
- GI50 [27]: > 100 µM (inactive)
- GI50 [28]: > 100 µM (inactive)
- GI50 [29]: > 100 µM (inactive)
- GI50 [30]: > 100 µM (inactive)
- GI50 [31]: > 100 µM (inactive)
- GI50 [32]: > 100 µM (inactive)
- GI50 [33]: > 100 µM (inactive)
- GI50 [34]: > 100 µM (inactive)
- GI50 [35]: > 100 µM (inactive)
- GI50 [36]: > 100 µM (inactive)
- GI50 [37]: > 100 µM (inactive)
- GI50 [38]: > 100 µM (inactive)
- GI50 [39]: > 100 µM (inactive)
- GI50 [40]: > 100 µM (inactive)
- GI50 [41]: > 100 µM (inactive)
- GI50 [42]: > 100 µM (inactive)
- GI50 [43]: > 100 µM (inactive)
- GI50 [44]: 78 µM (inactive)
- GI50 [45]: > 100 µM (inactive)
- GI50 [46]: > 100 µM (inactive)
- GI50 [47]: > 100 µM (inactive)
- GI50 [48]: > 100 µM (inactive)
- GI50 [49]: > 100 µM (inactive)
- GI50 [50]: 79.8 µM (inactive)
- GI50 [51]: 97.1 µM (inactive)
- GI50 [52]: > 100 µM (inactive)
- GI50 [53]: > 100 µM (inactive)
- GI50 [54]: > 100 µM (inactive)
- GI50 [55]: > 10 µM (inactive)
- GI50 [56]: > 100 µM (inactive)
- GI50 [57]: > 100 µM (inactive)

Structure (SMILES): O=Cc1c(O)ccc2ccc(O)c(-c3c(O)ccc4ccc(O)cc34)c12
- GI50 [1]: 88.7 µM (inactive)
- GI50 [2]: > 100 µM (inactive)
- GI50 [3]: 43.2 µM (inactive)
- GI50 [5]: > 100 µM (inactive)
- GI50 [6]: 66.7 µM (inactive)
- GI50 [7]: 53.1 µM (inactive)
- GI50 [8]: > 100 µM (inactive)
- GI50 [9]: 67.9 µM (inactive)
- GI50 [10]: > 100 µM (inactive)
- GI50 [11]: > 100 µM (inactive)
- GI50 [12]: > 100 µM (inactive)
- GI50 [13]: 96.2 µM (inactive)
- GI50 [14]: 31.8 µM (inactive)
- GI50 [15]: > 100 µM (inactive)
- GI50 [16]: > 100 µM (inactive)
- GI50 [17]: > 100 µM (inactive)
- GI50 [18]: 49.5 µM (inactive)
- GI50 [19]: 52.7 µM (inactive)
- GI50 [20]: > 100 µM
- GI50 [22]: > 100 µM (inactive)
- GI50 [23]: > 100 µM (inactive)
- GI50 [24]: > 100 µM (inactive)
- GI50 [25]: > 100 µM (inactive)
- GI50 [26]: > 100 µM (inactive)
- GI50 [28]: > 100 µM (inactive)
- GI50 [29]: > 100 µM (inactive)
- GI50 [30]: > 100 µM (inactive)
- GI50 [31]: > 100 µM (inactive)
- GI50 [32]: 98.4 µM (inactive)
- GI50 [33]: > 100 µM (inactive)
- GI50 [34]: 37.5 µM (inactive)
- GI50 [35]: > 100 µM (inactive)
- GI50 [36]: 77.8 µM (inactive)
- GI50 [37]: > 100 µM (inactive)
- GI50 [38]: > 100 µM (inactive)
- GI50 [39]: > 100 µM (inactive)
- GI50 [40]: > 100 µM (inactive)
- GI50 [41]: 80.9 µM (inactive)
- GI50 [42]: > 100 µM (inactive)
- GI50 [43]: 99.3 µM (inactive)
- GI50 [44]: > 100 µM (inactive)
- GI50 [45]: > 100 µM (inactive)
- GI50 [46]: > 100 µM (inactive)
- GI50 [47]: > 100 µM (inactive)
- GI50 [48]: 44.4 µM (inactive)
- GI50 [49]: > 100 µM (inactive)
- GI50 [58]: 75.3 µM (inactive)
- GI50 [50]: > 100 µM (inactive)
- GI50 [51]: 48.2 µM (inactive)
- GI50 [52]: > 100 µM (inactive)
- GI50 [54]: > 100 µM (inactive)
- GI50 [55]: > 100 µM (inactive)
- GI50 [56]: 28.6 µM (inactive)
- GI50 [57]: > 100 µM (inactive)

Structure (SMILES): O=C(Nc1ccccc1)c1cccc([N+](=O)[O-])c1
- GI50 [1]: > 100 µM (inactive)
- GI50 [2]: > 100 µM (inactive)
- GI50 [3]: > 100 µM (inactive)
- GI50 [4]: > 100 µM (inactive)
- GI50 [5]: 37.5 µM (inactive)
- GI50 [6]: > 100 µM (inactive)
- GI50 [11]: > 100 µM (inactive)
- GI50 [12]: > 100 µM (inactive)
- GI50 [13]: 92.9 µM (inactive)
- GI50 [15]: > 100 µM (inactive)
- GI50 [17]: > 100 µM (inactive)
- GI50 [18]: > 100 µM (inactive)
- GI50 [19]: > 100 µM (inactive)
- GI50 [20]: > 100 µM
- GI50 [21]: > 100 µM (inactive)
- GI50 [22]: > 100 µM (inactive)
- GI50 [24]: > 100 µM (inactive)
- GI50 [25]: > 100 µM (inactive)
- GI50 [27]: > 100 µM (inactive)
- GI50 [28]: > 100 µM (inactive)
- GI50 [29]: > 100 µM (inactive)
- GI50 [30]: > 100 µM (inactive)
- GI50 [33]: > 100 µM (inactive)
- GI50 [34]: > 100 µM (inactive)
- GI50 [35]: > 100 µM (inactive)
- GI50 [36]: > 100 µM (inactive)
- GI50 [39]: > 100 µM (inactive)
- GI50 [40]: > 100 µM (inactive)
- GI50 [43]: > 100 µM (inactive)
- GI50 [44]: > 100 µM (inactive)
- GI50 [46]: > 100 µM (inactive)
- GI50 [47]: > 100 µM (inactive)
- GI50 [50]: 60.8 µM (inactive)
- GI50 [51]: > 100 µM (inactive)
- GI50 [52]: > 100 µM (inactive)
- GI50 [53]: > 100 µM (inactive)
- GI50 [54]: > 100 µM (inactive)
- GI50 [57]: 39.9 µM (inactive)
